Assay results published in patent US5220001A, “Anthracycline glycoside derivatives” (Zaidan Hojim Biseibutsu Dong-A Pharm Co., priority 1989, dated 1993).
Structures can show the parent of a compound that is named as a salt. Where two headings read alike, the source gives them in different places.

Tests used:
L1210 murine leukemia = assay: In vivo antitumor activity on DCF1 mice bearing L1210 murine leukemia; details: for T/C (%): i.p. days 1, 5, 9, mean survival time vs control, 60-day observation
Procedure: The in vivo antitumor activity of the compounds of present invention was studied on DCF1 mice bearing L1210 murine leukemia. Healthy female DCF1 mice were inoculated by intraperitoneal injection with 1×10^5 L1210 leukemia cells per animal. The inoculated mice were then treated intraperitoneally on the days 1, 5, 9 beginning on day 1, 24 hours after inoculation of the leukemia cells with various doses of test compounds. Doxorubicin hydrochloride was administered for comparison. All test compounds and doxorubicin hydrochloride were dissolved in filtered (0.22 μm) distilled water. […] The results are shown in Table 1 where T/C(%) values are determined by dividing the mean survival time of the treated mice by that of the control mice, the quotient so obtained being multiplied by 100. The survival time of the mice which survived more than 60 days after tumor inoculation was scored as 60 days. An increase on the T/C(%) indicates an increase in the antitumor activity of the compound.

[1] = system: L1210 murine leukemia cells; assay: In vitro growth inhibition activity on L1210 murine leukemia cells (tetrazolium-based MTT colorimetric assay); assay type: cell-based; details: Mus musculus
Procedure: In vitro growth inhibition activity of the compounds of present invention on L1210 murine leukemia cells was assessed by tetrazolium-based colorimetric assay described in Cancer Research Vol. 47, pp. 936-942, February 1987 with some modifications.
L1210 murine leukemia cells in exponential phase were plated at the density of 1×10^5 cells per well in 96-well microliter plates. The cell culture medium was RPMI 1640 (Roswell Park Memorial Institutes 1640) medium supplemented with 10% heat inactivated fetal bovine serum (FBS), 2mM L-glutamine, penicillin G sodium (100 units per ml of medium), and steptomycin sulfate (1 mg per ml of medium). The anthracycline compounds of present invention and doxorubicin hydrochloride were added to give final concentrations from 1 ng per ml to 300 ng per ml, while the control contained no drug.
The cells were incubated for 72 hours at 37.C. in an atmosphere of 10% CO2 and 90% air. At the end of drug exposure, 50 μl MTT(3-(4,5-dimethylthiazol-2-yl)-2,5-diphenyltetrazolium bromide) solution (2 mg per ml in phosphate-buffered saline) was added to each well and cultures were incubated at 37° C. for 4 hours in Co2 incubator. The MTT is reduced to water insoluble MTT formazan(1-(4,5-dimethylthiazol-2-yl)-3,5-diphenylformazan) by mitochondrial succinate dehydrogenase only in living cells. At the end of incubation, 200 μl of supernatant was removed and the MTT formazan crystal was dissolved by adding 200 μl dimethylsulfoxide with mixing them.
The plates were then read immediately at 540 nm on a scanning multiwell spectrophotometer (enzyme-linked immunosorbent assay reader; Biotech Instruments Inc., Burlington, VT). The absorbance value corrected against uninoculated blank values. The absorbance values are directly proportional to the cell numbers in living state. The IC 50 defined a 50% reduction of absorbance against untreated control were calculated from dose-response curve and are shown in Table 2.

[2] = L1210 cells, 72 hours, MTT, 50% reduction of absorbance against untreated control, read-out: IC50

| SMILES | IC50 [1, 2] [µg/mL] | T/C (%) (L1210 murine leukemia; dose 0.125 mg/kg) | T/C (%) (L1210 murine leukemia; dose 0.250 mg/kg) | T/C (%) (L1210 murine leukemia; dose 0.500 mg/kg) | T/C (%) (L1210 murine leukemia; dose 1.000 mg/kg) | T/C (%) (L1210 murine leukemia; dose 2.000 mg/kg) | T/C (%) (L1210 murine leukemia; dose 4.000 mg/kg) | T/C (%) (L1210 murine leukemia; dose 8.000 mg/kg) | T/C (%) (L1210 murine leukemia; dose 16.000 mg/kg) | T/C (%) (L1210 murine leukemia; dose 32.000 mg/kg) | cure of tumored mice (L1210 murine leukemia; at 32 mg/kg, 16 mg/kg and 8 mg/kg i.p.) | toxicity (decrease in T/C(%) at high dose) (L1210 murine leukemia; 16 mg/kg compared with 8 mg/kg) | IC50 ([1]; L1210, 72 h) [µg/mL] |
| --- | --- | --- | --- | --- | --- | --- | --- | --- | --- | --- | --- | --- | --- |
| COc1cccc2c1C(=O)c1c(O)c3c(c(O)c1C2=O)C[C@@](O)(C(=O)CO)C[C@@H]3O[C@H]1C[C@H](N)[C@H](O)[C@H](C)O1 [Doxorubicin hydrochloride, reference compound] |  | 141 | 170 | 218 | 242 | 242 | 469 | 303 | 109 |  |  | significant decrease in T/C(%) | 0.0373 |
| COc1cccc2c1C(=O)c1c(O)c3c(c(O)c1C2=O)CC(O)(C(=O)COC(=O)C1CCCN1)CC3OC1OC(C)C(O)C(O)C1F [Example 13, 7-0-(2,6-dideoxy-2-fluoro-α-L-talopyranosyl)adriamycinone 14-0-L-prolinate HCl salt] | 0.0163 | 140 | 159 | 213 | 313 | 367 | 283 | 427 | 635 | 525 |  |  |  |
| COc1cccc2c1C(=O)c1c(O)c3c(c(O)c1C2=O)CC(O)(C(=O)COC(=O)CCCCCN)CC3OC1OC(C)C(O)C(O)C1F [Example 7, 7-0-(2,6-dideoxy-2 fluoro-α-L-talopyranosyl)adriamycinone 14-0-(6-aminohexanoate) HCl salt] |  | 111 | 122 | 168 | 242 | 329 | 348 | 367 | 441 | 663 |  |  | 0.0745 |

Continued, in another order:

| IC50 [1, 2] [µg/mL] | SMILES | T/C (%) (L1210 murine leukemia; dose 0.125 mg/kg) | T/C (%) (L1210 murine leukemia; dose 0.250 mg/kg) | T/C (%) (L1210 murine leukemia; dose 0.500 mg/kg) | T/C (%) (L1210 murine leukemia; dose 1.000 mg/kg) | T/C (%) (L1210 murine leukemia; dose 2.000 mg/kg) | T/C (%) (L1210 murine leukemia; dose 4.000 mg/kg) | T/C (%) (L1210 murine leukemia; dose 8.000 mg/kg) | T/C (%) (L1210 murine leukemia; dose 16.000 mg/kg) | T/C (%) (L1210 murine leukemia; dose 32.000 mg/kg) | cure of tumored mice (L1210 murine leukemia; at 32 mg/kg, 16 mg/kg and 8 mg/kg i.p.) | toxicity (decrease in T/C(%) at high dose) (L1210 murine leukemia; 16 mg/kg compared with 8 mg/kg) | IC50 ([1]; L1210, 72 h) [µg/mL] |
| --- | --- | --- | --- | --- | --- | --- | --- | --- | --- | --- | --- | --- | --- |
| 0.0155 | COc1cccc2c1C(=O)c1c(O)c3c(c(O)c1C2=O)CC(O)(C(=O)COC(=O)C(N)C(C)C)CC3OC1OC(C)C(O)C(O)C1F [Example 11, 7-0-(2,6-dideoxy-2-fluoro-α-L-talopyranosyl)adriamycinone 14-0-L-valinate HCl salt] | 150 | 168 | 226 | 298 | 492 | 559 | 586 | 727 | 252 |  |  |  |
| 0.0134 | COc1cccc2c1C(=O)c1c(O)c3c(c(O)c1C2=O)CC(O)(C(=O)COC(=O)CN)CC3OC1OC(C)C(O)C(O)C1F [Example 3, 7-0-(2,6-dideoxy-2-fluoro-α-L-talopyranosyl)adriamycinone 14-0-glycinate HCl salt] | 186 | 238 | 328 | 230 | 255 | 279 | 727 | 727 | 727 | cured all tumored mice |  |  |
| 0.0101 | COc1cccc2c1C(=O)c1c(O)c3c(c(O)c1C2=O)CC(O)(C(=O)COC(=O)CCN)CC3OC1OC(C)C(O)C(O)C1F [Example 5, 7-0-(2,6-dideoxy-2-fluoro-α-L-talopyranosyl)adriamycinone 14-0-β-alaninate HCl salt] | 140 | 162 | 189 | 248 | 361 | 333 | 500 | 636 | 542 |  |  |  |
| 0.0143 | COc1cccc2c1C(=O)c1c(O)c3c(c(O)c1C2=O)CC(O)(C(=O)COC(=O)C(C)N)CC3OC1OC(C)C(O)C(O)C1F [Example 9, 7-0-(2,6-dideoxy-2-fluoro-α-L-talopyranosyl)adriamycinone 14-0-L-alaninate HCl salt] | 171 | 190 | 244 | 287 | 356 | 468 | 488 | 660 | 727 |  |  |  |
